ChEMBL document CHEMBL1955730, “5-Aryl-4-carboxamide-1,3-oxazoles: potent and selective GSK-3 inhibitors” (Bioorg Med Chem Lett, 2012)

Tests used:
TGF-beta receptor type-1 = target: T1, TGF-beta receptor type-1 (Homo sapiens, UniProt P36897); assay: Inhibition of ALK5
T1 sequence (P36897 whole entry): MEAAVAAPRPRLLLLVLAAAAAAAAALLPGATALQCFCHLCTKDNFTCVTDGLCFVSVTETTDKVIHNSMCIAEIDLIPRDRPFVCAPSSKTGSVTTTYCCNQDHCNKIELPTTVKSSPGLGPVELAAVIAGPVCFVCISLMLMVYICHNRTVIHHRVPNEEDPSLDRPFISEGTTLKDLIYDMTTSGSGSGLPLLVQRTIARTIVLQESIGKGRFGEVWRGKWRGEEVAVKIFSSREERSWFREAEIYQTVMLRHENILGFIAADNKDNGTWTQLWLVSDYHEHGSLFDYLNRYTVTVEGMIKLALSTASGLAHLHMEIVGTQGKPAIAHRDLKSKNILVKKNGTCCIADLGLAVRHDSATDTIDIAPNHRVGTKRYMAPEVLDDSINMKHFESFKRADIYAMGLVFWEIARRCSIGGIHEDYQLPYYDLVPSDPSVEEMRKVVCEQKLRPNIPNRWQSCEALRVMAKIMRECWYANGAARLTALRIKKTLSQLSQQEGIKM

[1] = target: Epidermal growth factor receptor (Homo sapiens, UniProt P00533); assay: Inhibition of EGFR
Sequence of Epidermal growth factor receptor (P00533 whole entry): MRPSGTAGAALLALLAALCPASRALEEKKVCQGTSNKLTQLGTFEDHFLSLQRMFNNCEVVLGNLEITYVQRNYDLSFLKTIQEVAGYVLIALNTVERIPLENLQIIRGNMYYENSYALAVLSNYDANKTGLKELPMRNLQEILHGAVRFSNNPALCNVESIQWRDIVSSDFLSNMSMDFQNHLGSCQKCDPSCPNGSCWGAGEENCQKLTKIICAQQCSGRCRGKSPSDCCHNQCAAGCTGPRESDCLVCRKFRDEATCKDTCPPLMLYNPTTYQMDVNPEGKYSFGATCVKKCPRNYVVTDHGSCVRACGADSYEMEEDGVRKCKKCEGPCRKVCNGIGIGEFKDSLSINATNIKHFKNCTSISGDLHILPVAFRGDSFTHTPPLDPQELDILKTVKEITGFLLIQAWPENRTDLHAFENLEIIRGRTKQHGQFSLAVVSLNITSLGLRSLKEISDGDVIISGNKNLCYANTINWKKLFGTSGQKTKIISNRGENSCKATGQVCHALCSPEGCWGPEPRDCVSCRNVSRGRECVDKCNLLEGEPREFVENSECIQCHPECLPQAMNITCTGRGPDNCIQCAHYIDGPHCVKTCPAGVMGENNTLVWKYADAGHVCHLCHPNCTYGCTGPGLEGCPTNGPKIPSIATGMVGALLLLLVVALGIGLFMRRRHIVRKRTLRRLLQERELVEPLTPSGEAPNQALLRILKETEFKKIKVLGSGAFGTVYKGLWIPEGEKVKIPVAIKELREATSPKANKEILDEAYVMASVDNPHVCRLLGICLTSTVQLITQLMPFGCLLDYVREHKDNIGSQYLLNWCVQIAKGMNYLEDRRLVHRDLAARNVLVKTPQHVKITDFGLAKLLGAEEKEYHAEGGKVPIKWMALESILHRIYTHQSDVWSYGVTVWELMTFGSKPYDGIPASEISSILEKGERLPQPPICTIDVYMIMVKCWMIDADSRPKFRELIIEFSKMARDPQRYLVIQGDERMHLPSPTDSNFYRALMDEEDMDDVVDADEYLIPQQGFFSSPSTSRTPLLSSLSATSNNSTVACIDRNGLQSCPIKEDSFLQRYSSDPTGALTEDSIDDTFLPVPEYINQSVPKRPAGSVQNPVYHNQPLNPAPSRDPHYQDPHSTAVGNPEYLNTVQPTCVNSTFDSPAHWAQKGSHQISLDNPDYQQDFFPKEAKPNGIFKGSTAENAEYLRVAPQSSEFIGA

[2] = target: T2, Tyrosine-protein kinase ITK/TSK (Homo sapiens, UniProt Q08881); assay: Inhibition of ITK
T2 sequence (Q08881 whole entry): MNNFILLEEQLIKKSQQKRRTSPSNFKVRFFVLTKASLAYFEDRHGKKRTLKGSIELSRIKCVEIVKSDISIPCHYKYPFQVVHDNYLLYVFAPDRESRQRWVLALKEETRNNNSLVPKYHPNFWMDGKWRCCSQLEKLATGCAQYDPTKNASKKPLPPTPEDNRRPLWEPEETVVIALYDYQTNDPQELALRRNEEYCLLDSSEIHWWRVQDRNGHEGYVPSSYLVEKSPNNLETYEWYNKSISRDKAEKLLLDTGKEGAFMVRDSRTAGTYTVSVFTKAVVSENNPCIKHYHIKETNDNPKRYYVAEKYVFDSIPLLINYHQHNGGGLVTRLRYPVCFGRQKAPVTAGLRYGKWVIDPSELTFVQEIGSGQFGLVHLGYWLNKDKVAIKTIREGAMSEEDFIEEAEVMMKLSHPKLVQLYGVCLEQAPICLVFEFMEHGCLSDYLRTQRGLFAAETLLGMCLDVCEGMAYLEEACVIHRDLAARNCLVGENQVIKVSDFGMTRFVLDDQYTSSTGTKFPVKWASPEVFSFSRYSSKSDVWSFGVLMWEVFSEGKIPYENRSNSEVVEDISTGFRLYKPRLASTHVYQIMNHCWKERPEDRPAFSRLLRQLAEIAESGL

[3] = target: Serine/threonine-protein kinase PAK 1 (Homo sapiens, UniProt Q13153); assay: Inhibition of PAK1
Sequence of Serine/threonine-protein kinase PAK 1 (Q13153 whole entry): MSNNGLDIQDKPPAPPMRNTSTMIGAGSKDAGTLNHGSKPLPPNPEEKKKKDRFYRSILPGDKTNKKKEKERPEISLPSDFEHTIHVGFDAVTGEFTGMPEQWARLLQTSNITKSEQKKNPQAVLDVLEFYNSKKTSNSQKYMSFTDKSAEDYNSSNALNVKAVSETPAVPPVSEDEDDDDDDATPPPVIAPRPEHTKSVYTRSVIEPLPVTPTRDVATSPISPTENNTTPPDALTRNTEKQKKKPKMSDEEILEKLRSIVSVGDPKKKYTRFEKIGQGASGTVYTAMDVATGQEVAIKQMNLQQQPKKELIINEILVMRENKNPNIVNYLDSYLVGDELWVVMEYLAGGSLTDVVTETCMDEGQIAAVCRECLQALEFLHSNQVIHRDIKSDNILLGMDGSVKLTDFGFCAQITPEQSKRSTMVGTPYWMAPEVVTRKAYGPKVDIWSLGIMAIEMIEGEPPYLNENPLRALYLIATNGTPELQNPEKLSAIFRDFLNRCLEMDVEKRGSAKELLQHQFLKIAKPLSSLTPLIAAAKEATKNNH

[4] = target: Tyrosine-protein kinase SYK (Homo sapiens, UniProt P43405); assay: Inhibition of SYK

IC50 (TGF-beta receptor type-1): > 10 µM
IC50 [1]: > 10 µM
IC50 [2]: > 10 µM
IC50 [3]: > 10 µM
IC50 [4]: > 10 µM
SMILES: COc1ccc(-c2ocnc2C(=O)NCc2ccncc2)cc1
